Results on one molecule are retold here after patent US12521356B2, “Compositions and methods for treating pain, inflammation, infection, malaria, and sepsis” (Duke University, priority 2018, dated 2026).

The assay addresses T1, ALX (Homo sapiens, UniProt P25090).
T1 construct: host or cells: HEK293 flip-in cells
T1 sequence (P25090 1-351): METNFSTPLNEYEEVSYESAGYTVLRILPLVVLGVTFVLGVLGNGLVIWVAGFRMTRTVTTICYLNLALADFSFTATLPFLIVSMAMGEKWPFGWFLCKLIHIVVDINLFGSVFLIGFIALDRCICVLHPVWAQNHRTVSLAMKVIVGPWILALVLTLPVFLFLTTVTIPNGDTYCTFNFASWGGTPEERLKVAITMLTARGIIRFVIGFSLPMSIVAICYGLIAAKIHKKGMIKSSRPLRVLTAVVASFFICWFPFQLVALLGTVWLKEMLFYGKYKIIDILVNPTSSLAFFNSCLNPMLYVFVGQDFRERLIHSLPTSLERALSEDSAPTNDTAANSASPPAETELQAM
The assay can be described thus: Ca2+ imaging (Fura-2AM) in HEK293 cells transfected with ALX cDNA. To be noted: HEK293 cells expressing ALX. Format: cell-based. The source says:
FIG. 10A-FIG. 10C. Characterization of intracellular Ca^2+ changes in HEK293 cells expressing ChemR23, GPR32, and ALX. Ca^2+ imaging with Fura-2AM indicator showing iCa^2+ levels in HEK293 cells transfected with ChemR23 (FIG. 10A), GPR32 (FIG. 10B), and ALX (FIG. 10C) cDNAs. Note that NPD1 fails to elicit iCa^2+ increase in HEK293 cells expressing ChemR23, GPR32, and ALX. […] ATP is included as a positive control. *P<0.05, compared with baseline n=44˜97 cells from 3 cultures. All the data are expressed as mean±s.e.m.
HEK cell culture and transfection. HEK293 flip-in cell line was purchased from Duke Cell Culture Facility. Cells were cultured in high glucose (4.5 g/L) Dulbecco's Modified Eagle's Medium containing 10% (v/v) fetal bovine serum (Gibco). Transfection (2 μg cDNA) was performed with Lonza electroporation (Lonza) at 70% confluency and the transfected cells were cultured in the same growth medium for 48 h before use. The hGPR37-V5 pLenti304 plasmids were obtained from DNASU (Tempe, AZ), and hGPR32, hChemR23 and hALX pcDNA3 plasmids were provided by Dr. Serhan from Harvard Medical School, Boston.
Calcium imaging. HEK 293 cells, with or without transfection of Gpr37, GPR32, ChemR23 or ALX1 cDNA, were loaded with 5 μM Fura-2AM (Invitrogen) for 1 hour and then were resuspended in normal external buffer (140 NaCl, 5 KCl, 2 CaCl2, 2 MgCl2, 10 HEPES, in mM, titrated to pH 7.4 with NaOH) or external Ca^2+-free buffer (140 NaCl, 2 MgCl2, 5 EGTA, 10 HEPES, in mM, titrated to pH 7.4 with NaOH). Peritoneal macrophages, collected from WT and Gpr37 KO mice, were loaded with 5 μM […] (Invitrogen) for 1 hour and then were resuspended in normal external buffer. Images of the HEK 293 cells and macrophages with the excitation wavelength of 340 nm and 380 nm were captured with a cooled Digital CMOS camera (ORCA-Flash 4.0, Hamamatsu Photonics K.K, Japan). The ratio of fluorescence intensity of the two wavelengths in each experiment was analyzed using MetaFluor (Molecular Devices). The Shutter speed and wavelength was controlled by Lambda DG-4 system (Sutter instrument Co., Novato, CA). Values from each of the experiments were normalized to the baseline ratio of 340/380 nm.
Several SPM receptors have been identified such as ChemR23 for RvE1, GPR32 for RvD1, and ALX for lipoxin A. We transfected human cDNAs of ChemR23, GPR32, and ALX in HEK293 cells and checked Ca^2+ responses following the treatment of each SPM.

Take `CC/C=C\C[C@H](O)\C=C/C=C/C=C/[C@H](O)C/C=C\C/C=C\CCC(=O)O` [NPD1, neuroprotectin D1]: the “iCa2+ increase / Ca2+ response” value was “failed to elicit iCa^2+ increase”.
